Measurements: ChEMBL document CHEMBL5321227, “Lysosome-targeting phenalenones as efficient type I/II photosensitizers for anticancer photodynamic therapy” (Eur J Med Chem, 2023)
Active and inactive are the calls of the source. The rule behind the calls is not given here.

How the values were obtained:
[1] = Drug uptake in tumor of BALB/c mouse xenografted with mouse 4T1 cells at 5 mg/kg,IT(Intratumoral) and measured for 6 to 72 hrs by fluorescence imaging analysis; assay type: ADME, organism-based, Neoplasm; conditions: in vivo, other, time 6-72 hrs
[2] = Photostability of compound in EtOH assessed as compound decomposition at 50 uM incubated for 5 to 20 mins under photoirradiation with 550nm and 10 J/cm^2 LED light by UV-visible spectroscopic analysis; assay type: physicochemical; conditions: time 5-20 min
[3] = Stability of compound in various pH; assay type: physicochemical
[4] = Drug metabolism in human MDA-MB-231 cells assessed as increase in carboxylesterase mediated SR release at 5 uM incubated for 2 hrs by confocal laser scanning microscopy; assay type: ADME, cell-based; conditions: mda-mb-231, 2 h
[5] = Toxicity in BALB/c mouse xenografted with mouse 4T1 cells assessed as histopathological lesion in lung at 5 mg/kg,IT(Intratumoral) for 14 days by Hematoxylin and Eosin staining based microscopy; assay type: organism-based; conditions: in vivo, other, 336 h, time 14 day
[6] = Drug uptake in heart of BALB/c mouse xenografted with mouse 4T1 cells at 5 mg/kg,IT(Intratumoral) and measured after 6 hrs by fluorescence imaging analysis; assay type: ADME, organism-based; conditions: in vivo, other
[7] = Stability of compound in gamma-glutamyl transpeptidase at 10 uM incubated for 30 mins by fluorescence assay; assay type: physicochemical; conditions: 0.5 h
[8] = tested on: 4T1; test: Anticancer activity against mouse 4T1 cells assessed as fold increase in gamma-H2A.X protein expression at 1 uM preincubated for 2 hrs followed by photoirradiation with 500 to 700nm and 12 J/cm^2 LED light and measured after 24 hrs by Western blot analysis relative to control; assay type: functional; conditions: time 26 hrs
[9] = Toxicity in BALB/c mouse xenografted with mouse 4T1 cells assessed as tissue destruction with large spaces in tumor at 5 mg/kg,IT(Intratumoral) for 14 days followed by photoirradiation with 500 to 700nm light (0.5 W) for 6 hrs by Hematoxylin and Eosin staining based microscopy; assay type: organism-based; conditions: in vivo, other, 342 h, time 14.25 day
[10] = Stability of compound in GSH at 10 uM incubated for 30 mins by fluorescence assay; assay type: physicochemical; conditions: 0.5 h
[11] = Toxicity in BALB/c mouse xenografted with mouse 4T1 cells assessed as histopathological lesion in tumor at 5 mg/kg,IT(Intratumoral) for 14 days by Hematoxylin and Eosin staining based microscopy; assay type: organism-based; conditions: in vivo, other, 336 h, time 14 day
[12] = tested on: 4T1; test: Antitumor activity against mouse 4T1 cells xenografted in BALB/c mouse assessed as tumor growth inhibition at 5 mg/kg,IT(Intratumoral) for 14 days relative to control; assay type: functional, organism-based; conditions: time 14.0 day
[13] = Toxicity in BALB/c mouse xenografted with mouse 4T1 cells assessed as tissue destruction with large spaces in spleen at 5 mg/kg,IT(Intratumoral) for 14 days followed by photoirradiation with 500 to 700nm light (0.5 W) for 6 hrs by Hematoxylin and Eosin staining based microscopy; assay type: organism-based; conditions: in vivo, other, 342 h, time 14.25 day
[14] = Toxicity in BALB/c mouse xenografted with mouse 4T1 cells assessed as body weight change at 5 mg/kg,IT(Intratumoral) for 14 days followed by photoirradiation with 500 to 700nm light (0.5 W) for 6 hrs; assay type: organism-based; conditions: in vivo, other, 342 h, time 14.25 day
[15] = Induction of singlet oxygen production in ethanol assessed as singlet oxygen quantum yield at 410nm under photoirradiation with 550nm and 10 mW/cm^2 LED light for 10 to 80 secs by DPBF based microplate reader analysis; assay type: functional; conditions: time 10-80 sec
[16] = Toxicity in BALB/c mouse xenografted with mouse 4T1 cells assessed as body weight change at 5 mg/kg,IT(Intratumoral) for 14 days; assay type: organism-based; conditions: in vivo, other, 336 h, time 14 day
[17] = Toxicity in BALB/c mouse xenografted with mouse 4T1 cells assessed as histopathological lesion in heart at 5 mg/kg,IT(Intratumoral) for 14 days by Hematoxylin and Eosin staining based microscopy; assay type: organism-based; conditions: in vivo, other, 336 h, time 14 day
[18] = Toxicity in BALB/c mouse xenografted with mouse 4T1 cells assessed as tissue destruction with large spaces in heart at 5 mg/kg,IT(Intratumoral) for 14 days followed by photoirradiation with 500 to 700nm light (0.5 W) for 6 hrs by Hematoxylin and Eosin staining based microscopy; assay type: organism-based; conditions: in vivo, other, 342 h, time 14.25 day
[19] = Toxicity in BALB/c mouse xenografted with mouse 4T1 cells assessed as tissue destruction with large spaces in lung at 5 mg/kg,IT(Intratumoral) for 14 days followed by photoirradiation with 500 to 700nm light (0.5 W) for 6 hrs by Hematoxylin and Eosin staining based microscopy; assay type: organism-based; conditions: in vivo, other, 342 h, time 14.25 day
[20] = Drug metabolism in carboxylesterase (unknown origin) assessed as formation of active photosensitizer 6-amino-5-iodo-1H-phenalen-1-one at 10 uM under by LC-MS/MS analysis assay; assay type: ADME; conditions: human
[21] = tested on: 4T1; test: Antitumor activity against mouse 4T1 cells xenografted in BALB/c mouse assessed as tumor growth inhibition at 5 mg/kg,IT(Intratumoral) for 14 days followed by photoirradiation with 500 to 700nm light (0.5 W) for 6 hrs; assay type: functional, organism-based; conditions: time 14.25 day
[22] = Toxicity in BALB/c mouse xenografted with mouse 4T1 cells assessed as tissue destruction with large spaces in liver at 5 mg/kg,IT(Intratumoral) for 14 days followed by photoirradiation with 500 to 700nm light (0.5 W) for 6 hrs by Hematoxylin and Eosin staining based microscopy; assay type: organism-based; conditions: in vivo, other, 342 h, time 14.25 day
[23] = Drug metabolism in mouse 4T1 cells assessed as increase in carboxylesterase mediated 6-amino-5-iodo-1H-phenalen-1-one release at 5 uM incubated for 2 hrs by confocal laser scanning microscopy; assay type: ADME, cell-based; conditions: 4t1, 2 h
[24] = tested on: 4T1; test: Anticancer activity against mouse 4T1 cells assessed as reduction in cell viability preincubated for 2 hrs followed by photoirradiation with 500 to 700nm and 12 J/cm^2 LED light for 24 hrs by CCK-8 assay; assay type: functional, cell-based; conditions: 4T1, light or radiation study
[25] = tested on: 4T1; test: Anticancer activity against mouse 4T1 cells assessed as reduction in cell viability at 0.01 to 10 uM incubated for 24 hrs by CCK-8 assay; assay type: functional, cell-based; conditions: dose 0.01-10 µM
[26] = Drug uptake in kidney of BALB/c mouse xenografted with mouse 4T1 cells at 5 mg/kg,IT(Intratumoral) and measured after 6 hrs by fluorescence imaging analysis; assay type: ADME, organism-based; conditions: in vivo, other
[27] = tested on: 4T1; test: Anticancer activity against mouse 4T1 cells assessed as fold increase in cleaved caspase-3 protein expression at 1 uM preincubated for 2 hrs followed by photoirradiation with 500 to 700nm and 12 J/cm^2 LED light and measured after 24 hrs by Western blot analysis relative to control; assay type: functional; conditions: time 26 hrs
[28] = Drug uptake in liver of BALB/c mouse xenografted with mouse 4T1 cells at 5 mg/kg,IT(Intratumoral) and measured after 6 hrs by fluorescence imaging analysis; assay type: ADME, organism-based; conditions: in vivo, other
[29] = tested on: MDA-MB-231; test: Anticancer activity against human MDA-MB-231 cells assessed as number of dead cells at 2.5 uM preincubated for 12 hrs followed by photoirradiation with 500 to 700nm and 12 J/cm^2 LED light for 10 mins by calcein-AM and propidium iodide staining based flow cytometry; assay type: functional, cell-based; conditions: time 12.2 hrs
[30] = tested on: MDA-MB-231; test: Anticancer activity against human MDA-MB-231 cells assessed as reduction in cell viability preincubated for 2 hrs followed by photoirradiation with 500 to 700nm and 12 J/cm^2 LED light for 24 hrs by CCK-8 assay; assay type: functional, cell-based; conditions: MDA-MB-231, light or radiation study
[31] = Stability of compound in H2O2 at 10 uM incubated for 30 mins by fluorescence assay; assay type: physicochemical; conditions: 0.5 h

## O=C(CCl)Nc1c(I)cc2c3c(cccc13)C(=O)C=C2
[1]
  Drug uptake: Not Active
[2]
  Stability: Stable
[3]
  Stability: Stable
[4]
  Drug metabolism: Metabolite_Detected
[5]
  Activity: Non-Toxic
[6]
  Drug uptake: Not Active
[7]
  Stability: Stable
[8]
  fold change (FC): 2.12
[9]
  Activity: Toxic
[10]
  Stability: Stable
[11]
  Activity: Non-Toxic
[12]
  Activity: Active
[13]
  Activity: Toxic
[14]
  Activity: Toxic
[15]
  Activity: 0.09
[16]
  Activity: Toxic
[17]
  Activity: Non-Toxic
[18]
  Activity: Toxic
[19]
  Activity: Toxic
[20]
  Drug metabolism: Metabolite_Detected
[21]
  Activity: Active
[22]
  Activity: Toxic
[23]
  Drug metabolism: Metabolite_Detected
[24]
  IC50: 1310 nM
[25]
  Activity: Active
[26]
  Drug uptake: Active
[27]
  fold change (FC): 3.45
[28]
  Drug uptake: Active
[29]
  Activity: Active
[30]
  IC50: 1590 nM
[31]
  Stability: Stable
